Article PMC8036603, “Small Molecule Inhibitors of White Spot Syndrome Virus: Promise in Shrimp Seedling Culture” (International Journal of Molecular Sciences, 2021)
Where “and” joins values, the source holds several entries; their conditions need not be identical. Equal entries are not always repeated.

How the values were obtained:
[1] = tested on: white spot syndrome virus (WSSV); assay: Preincubation of WSSV with compound before infection of larvae; format: in vivo, Litopenaeus vannamei; conditions: virus pre-incubated with compound 1–4 h; for increase of survival rate: 10 mg/L
Protocol: For preincubation with immersion, WSSV was preincubated with C2/C7 to a final viral titer of 1.6 × 10^5 copies/µL and up to 10 mg/L coumarin compound or vehicle control in the challenge wells. After 1, 2, and 4 h of incubation, shrimp larvae were added to the challenge well until 72-h post-infection. The surviving shrimp were humanely euthanized with tricaine methane sulfonate (MS-222) at a final concentration of 150 mg/L, followed by quantification of the copy number of the viral genome.

[2] = Solubility / precipitation in aquacultural water; format: physicochemical; conditions: for lowest precipitation concentration / lowest precipitation concentration (bracketed value in LC50 48 h column) / lowest precipitation concentration (bracketed value in LC50 72 h column): test range 0.4~100 mg/L, aquacultural water, LC50 NONE; for solubility in aquacultural water: tested concentration 16 mg/L, 28 °C
Protocol: Prior to evaluation of the anti-WSSV activity of coumarins, the safety doses for larvae needed to be determined. […] In contrast, the electron-withdrawing group was more toxic than the electron-donating group, with the LC50 of A5‒A8 being <5 mg/L at 72 h. […] Based on preliminary analysis of the structure-activity relationship (SAR) of similar spatial structures with different substituents of electron-donating and electron-withdrawing groups to coumarins A1, B1, and C1, we considered that […] of compounds; this provides a basis for further research.
All conventional reagents and solvents are purchased directly from commercial companies and no further purification is required. Organic solvents were purchased from Sinopharm chemical reagent Co., Ltd. and purified by distillation and moisture was excluded from the glass apparatus using CaCl2 drying tubes. Throughout this study, silica gel H (200–300 mesh; Qingdao Marine Chemical Factory, Qingdao, China) was used for the column chromatography. For thin layer chromatographic (TLC) plates, Silica gel (GF254) (Qingdao Marine Chemical Factory, Qingdao, China) were used for thin layer chromatographic (TLC) analysis, and all of the spots and bands were detected by UV irradiation (254, 365 nm). The intermediates and products were characterized by electrospray ionization mass spectrometry (TripleTOF5600þ; AB SCIEX Pte. Ltd., Boston, MA, USA), ^1H NMR and ^13C NMR (Bruker AM500 spectrometer; Bruker Corporation, Berne, Switzerland). The derivatives were dissolved in 100% dimethyl sulfoxide (DMSO; Beyotime Biotechnology, Haimen, China), stored at 4 °C prior to antiviral evaluation, and used within 6 months. For solubility, the stock solutions, at a concentration of 50 mg/mL, were sonicated for approximately 10 min to ensure that the derivatives were fully dissolved and mixed.

[3] = tested on: white spot syndrome virus (WSSV); assay: Stability assay in aquacultural water (residual anti-WSSV activity); design: species or system Litopenaeus vannamei; conditions: 28 °C, nonlinear regression best-fit
Protocol: Aquaculture water was obtained from culture ponds of the Zhejiang Mariculture Research Institute Qingjiang Station. C2/C7, with a final concentration of 10 mg/L, was added to aquacultural water samples in the presence of natural light for up to 4 days, at 28 °C, and finally preincubated with WSSV (final viral titer of 1.6 × 10^5 copies/µL) to infect shrimp larvae, followed by quantification of the copy number of the viral genome at 72 hpi, and the survival rate of the shrimp was evaluated.

[4] = tested on: white spot syndrome virus (WSSV); assay: Horizontal transmission of WSSV to naive recipient larvae; format: in vivo, Litopenaeus vannamei; conditions: 10 mg/L, each time point
Protocol: Shrimp larvae were infected with 1.6 × 10^5 copies/µL WSSV or aquacultural water only. At 24 hpi, a total of the 12 donor shrimps were placed into each challenge beaker (100 mL of water and a continuous air supply), and C2 (10 mg/L final concentration) or DMSO (0.2‰ final concentration) was added to each challenge beaker. Every 24 h, five donor and fifteen recipient shrimp were netted into a new challenge beaker with fresh water and a fresh dose of C2/C7 (10 mg/L) or DMSO (0.2‰). After 72 h of cohabitation, the surviving recipient shrimps were euthanized with MS-222 and frozen at −80 °C. In order to distinguish the donor and recipient samples in this test, we chose the larger shrimp as the recipients (total length of 1.1 ± 0.2 cm, body weight of 6.9 ± 0.5 mg, mean values ± SD) and placed a sieve in the challenge beaker to separate the donor and recipient shrimps.

[5] = tested on: Shrimp (L. vannamei) larvae; assay: Acute toxicity assay in shrimp larvae; format: in vivo, Litopenaeus vannamei; conditions: after 72 h of exposure
Protocol: Shrimp (L. vannamei) larvae (total length: 0.5 ± 0.04 cm, body weight: 4.2 ± 0.4 mg, mean ± SD) were provided by Zhejiang Mariculture Research Institute Qingjiang Station (Wenzhou, China). The larvae were maintained in a culture pond at 28 °C, fed four times a day with commercial feed pellets, and collected randomly for PCR testing to verify the WSSV-free status prior to the trial.
Acute toxicity of the coumarin derivatives was investigated by exposing larvae to a range of compound concentrations, from 0.1 mg/L to 100 mg/L of coumarin derivatives, where the dose setting was based on the data from preliminary tests in our laboratory. A DMSO-control (2%, v/v, the highest percentage of DMSO in treatments) served as the control. During the experiment, every 20 larvae were moved into six-well plates filled with 6 mL/per well freshly prepared test solutions for a 72-h incubation at 28 °C with a natural photoperiod. […] To avoid deterioration of water quality, dead shrimps were immediately removed at the point of observation. Three replicate experiments were performed.
Compound response curves were represented by a logistic sigmoidal function with a maximal effect level (Amax) and Hill coefficient representing the sigmoidal transition (Origin 8.1; http://www.originlab.com, accessed on 25 March 2021). Statistical analyses were performed using SPSS (version 18.0) statistical software (SPSS Inc., Chicago, IL, USA). The LC50 and EC50 values with 95% CIs were calculated using probit analysis. Virus titers were log10-transformed prior to statistical analyses. Unpaired Student’s t-tests were used to compare coumarin-treated samples and negative-control DMSO samples for determining significance and data are presented as mean values ± SD.

[6] = tested on: white spot syndrome virus (WSSV); assay: Pre-exposure (pre-treatment) of larvae to compound before WSSV infection; format: in vivo, Litopenaeus vannamei; conditions: for change in copy number of the viral genome, pre-exposure vs virus alone: larvae exposed up to 8 h prior to WSSV infection, 10 mg/L; for time to which shrimp death was delayed: pre-exposure 10 mg/L, untreated 100% mortality by 72 h
Protocol: For pre-treatment, C2/C7 (final concentration of 10 mg/L) was applied to shrimp larvae for 1, 4, and 8 h, followed by addition of WSSV (while the coumarin compounds were simultaneously removed) at a final viral titer of 1.6 × 10^5 copies/µL. The surviving shrimps were euthanized with MS-222 and frozen at −80 °C until being processed. The copy number of viral genome in samples was quantified by RT-qPCR.

[7] = tested on: white spot syndrome virus (WSSV); assay: Anti-WSSV activity in shrimp larvae, co-incubation, copy number of viral genome by RT-qPCR; format: in vivo, Litopenaeus vannamei; conditions: for copy number of the viral genome in sick or dead shrimp homogenates: 24, 48 and 72 hpi, up to 10 mg/L; for inhibitory efficiency on WSSV replication: six-point dose-response, viral genome copy number in larvae
[8] = WSSV-infected larvae, copy number of viral genome, 72 h, 95% CI in brackets

Compound | effect on WSSV infection (viral genome copy number) [1] | increase of survival rate [1] | lowest precipitation concentration [2] | lowest precipitation concentration (bracketed value in LC50 48 h column) [2] | lowest precipitation concentration (bracketed value in LC50 72 h column) [2] | solubility in aquacultural water [2] | calculated inhibitory half-life in water samples ([3]; 10 mg/L) | WSSV replication in naïve recipient larvae [4] | signs of toxicity at the saturation concentration [5] | change in copy number of the viral genome, pre-exposure vs virus alone [6] | time to which shrimp death was delayed [6] | copy number of the viral genome in sick or dead shrimp homogenates [7] | EC50 (mg/L; 95% CI), median effective concentration [7, 8] | MAR (%), maximum antiviral response ([7]; WSSV-infected larvae, viral genome copy number normalized to no treatment, low value = strong inhibition, mean ± SD) | inhibitory efficiency on WSSV replication [7] | half-life at 10 mg/L ([3]; buffer, read-out: calculated inhibitory half-life in water samples (converted)) | EC50 ([7]; Whispovirus xiabaidian, 72 h, read-out: EC50 (mg/L; 95% CI), median effective concentration, WSSV-infected larvae, copy number of viral genome, 72 h, 95% CI in brackets)
2-amino-4-(4-chlorophenyl)-5-oxo-4H,5H-pyrano[3,2-c]chromene-3-carbonitrile [C7] | suppressed WSSV infection | up to 40% | NONE (16) mg/L | NONE (16) mg/L | NONE (16) mg/L | insoluble | 57.6 h | significantly downregulated | No signs of toxicity were observed | slight changes | 96 hpi | down-regulated | < 10 mg/L and 05.727 (5.069~6.577) mg/L | 03.154 ± 1.157% | exceeded 90% | – | –
Cc1ccc(C2C(C#N)=C(N)Oc3c2c(=O)oc2ccccc32)cc1 (stereo not drawn) [C2, 2-amino-5-oxo-4-(p-tolyl)-4H,5H-pyrano[3,2-c]chromene-3-carbonitrile] | suppressed WSSV infection | up to 40% | NONE (16) mg/L | NONE (16) mg/L | NONE (16) mg/L | insoluble | – | significantly downregulated | No signs of toxicity were observed | slight changes | 96 hpi | down-regulated | 05.993 (5.327~6.851) mg/L | – | exceeded 90% | 55.2 h | < 10 mg/L
